Results: US11712434B2, “Compound having anti-cancer effect, and preparation method therefor and use thereof” (3D MEDICINES (BEIJING) CO., LTD., priority 2016, dated 2023)
Each block holds one compound with its values, some of them ahead of it.

Tests used:
Experiment in all cases: Cell proliferation assay (Alamar Blue)
Type in all cases: cell-based
SNU739 = SNU739 liver cancer cell line, 6 days culture
Protocol: (§1) 1. Instruments and Materials • Thermo 311 CO2 incubator; Haier biosafety cabinet; Molecular Devices microplate reader; Xiangyi brand L530 desktop low speed centrifuge; Olympus IX51 inverted fluorescence microscope, DMEM, RPMI 1640, MEM, DMEM/F12 1:1 medium, Fetal bovine serum, 0.25% trypsin solution, phosphate buffer (Thermo Fisher Shanghai Co., Ltd.); sigma dimethyl sulfoxide (DMSO), resazurin; 54 commercial tumor cell lines (including 26 liver cancer cell lines). Experimental drugs: compounds 1-12 and active drug Linifanib; chemotherapeutic drug Doxorubicin (HY-15142; Shanghai Qianyuan Biomedical Technology Co., Ltd.).
(§2) 2. Experimental Methods • 2.1 Cultivation of Different Cell Lines • 54 cell lines were cultured in a culture medium containing fetal bovine serum and placed in a 5% CO2 incubator at 37° C. for incubation. The cells were all grown in an adherent state, and the growth was observed under an inverted microscope, and subculture was performed when the cell confluence rate reached 80%-90%. The proportion and quantity of passage were determined by experimental needs. The ratio of subculture of this cell line was generally 1:2^˜1:3. • 2.2 Inhibition Effect on the Proliferation of Different Tumor Cell Lines • Cell test: 54 cell lines in logarithmic growth phase were inoculated in 96-well culture plates at 500^˜1×10^4/well (the optimal seeding density of each cell line was determined in pre-experiment), After incubating at 37° C. for 4 h in a 5% CO2 humidification incubator, added 10 μL of compounds 1-12 or Linifanib to each well, and tested 9 drug concentration gradients for each compound (diluted from the highest concentration of the test by 3.16 times). The solubility of each compound was different at a starting concentration of 100 or 30 μM, respectively. The QC reference compound Doxorubicin was added simultaneously to each cell line test, and the final drug concentrations were 10, 3.16, 1, 0.31, 0.1, 0.03, 0.01, 0.003, and 0.001 μM, respectively. In addition, a positive control group (100% inhibition) and a negative control group (0% inhibition) were set at the same time. The drug group was repeated for 2 wells per concentration, and the positive control group and the negative control group were repeated for 6 wells. After the culture was continued for 6 days in the incubator, AlamarBlue test operation was followed; • AlamarBlue test procedure: Incubated with 10 μL of AlamarBlue reagent per well for 1-4 h, shook for 1-2 min, MD microplate reader EX: 560 nm, EM: 590 nm wavelength to measure fluorescence, recorded the results, calculated the cell inhibition rate of the compound of the invention. Cell inhibition rate (%)=(A0% inhibition−A administration)/(A0% inhibition−A100% inhibition)×100%, and then using the method of nonlinear regression using GraphPad Prism 5.0 or MATILAB software (usually using four parameters) to graph and obtain a drug dose response curve to obtain an IC50 value of the compound of the present invention acting on a cancer cell line.

NCI-H661 = NCI-H661 tumor cell line, 6 days culture
Protocol: as §1, §2

SNU886 = SNU886 liver cancer cell line, 6 days culture
Protocol: as §1, §2

LC-2-ad = LC-2-ad tumor cell line, 6 days culture
Protocol: as §1, §2

HuTu80 = HuTu80 tumor cell line, 6 days culture
Protocol: as §1, §2

MDA-MB-435S = MDA-MB-435S tumor cell line, 6 days culture
Protocol: as §1, §2

T.T = T.T tumor cell line, 6 days culture
Protocol: as §1, §2

DLD1 = DLD1 tumor cell line, 6 days culture
Protocol: as §1, §2

JHH7 = JHH7 liver cancer cell line, 6 days culture
Protocol: as §1, §2

MDA-MB-231 = MDA-MB-231 tumor cell line, 6 days culture
Protocol: as §1, §2

HT1080 = HT1080 tumor cell line, 6 days culture
Protocol: as §1, §2

TE-15 = TE-15 tumor cell line, 6 days culture
Protocol: as §1, §2

SNU423 = SNU423 liver cancer cell line, 6 days culture
Protocol: as §1, §2

SNU398 = SNU398 liver cancer cell line, 6 days culture
Protocol: as §1, §2

JHH5 = JHH5 liver cancer cell line, 6 days culture
Protocol: as §1, §2

NCI-H716 = NCI-H716 tumor cell line, 6 days culture
Protocol: as §1, §2

SNU761 = SNU761 liver cancer cell line, 6 days culture
Protocol: as §1, §2

HUH7 = HUH7 liver cancer cell line, 6 days culture
Protocol: as §1, §2

SW620 = SW620 tumor cell line, 6 days culture
Protocol: as §1, §2

SNU449 = SNU449 liver cancer cell line, 6 days culture
Protocol: as §1, §2

SNU182 = SNU182 liver cancer cell line, 6 days culture
Protocol: as §1, §2

HUH6 = HUH6 liver cancer cell line, 6 days culture
Protocol: as §1, §2

TE-6 = TE-6 tumor cell line, 6 days culture
Protocol: as §1, §2

LNCAP-clone-FGC = LNCAP-clone-FGC tumor cell line, 6 days culture
Protocol: as §1, §2

Alexander cells = Alexander cells liver cancer cell line, 6 days culture
Protocol: as §1, §2

JHH4 = JHH4 liver cancer cell line, 6 days culture
Protocol: as §1, §2

JHH1 = JHH1 liver cancer cell line, 6 days culture
Protocol: as §1, §2

22RV1 = 22RV1 tumor cell line, 6 days culture
Protocol: as §1, §2

IC50 (SNU739): > 100 µM
IC50 (NCI-H661): > 100 µM
IC50 (SNU886): > 100 µM
IC50 (MDA-MB-435S): > 100 µM
IC50 (DLD1): > 100 µM
IC50 (MDA-MB-231): > 100 µM
IC50 (HT1080): > 100 µM
IC50 (SNU423): > 100 µM
IC50 (SNU398): > 100 µM
IC50 (NCI-H716): 67.4 µM
IC50 (SNU761): > 100 µM
IC50 (HUH7): > 100 µM
IC50 (SW620): > 100 µM
IC50 (SNU449): > 100 µM
IC50 (SNU182): > 100 µM
IC50 (HUH6): > 100 µM
IC50 (LNCAP-clone-FGC): > 100 µM
IC50 (22RV1): > 100 µM
Compound: Cc1ccc(F)c(NC(=O)Nc2ccc(-c3cccc4[nH]nc(NC(=O)CCCCCNC(=O)C[C@H](N)C(=O)O)c34)cc2)c1 [Compound 11]
IC50 (LC-2-ad): > 100 µM
IC50 (HuTu80): 63.1 µM
IC50 (T.T): > 100 µM
IC50 (JHH7): > 100 µM
IC50 (TE-15): > 100 µM
IC50 (JHH5): > 100 µM
IC50 (TE-6): > 100 µM
IC50 (Alexander cells): > 100 µM
IC50 (JHH4): > 100 µM
IC50 (JHH1): > 100 µM

IC50 (SNU739; SNU-739, 144 h): 7.63 µM
IC50 (NCI-H661; Homo sapiens, 144 h): 20.2 µM
IC50 (SNU886; SNU-886, 144 h): 7.24 µM
IC50 (MDA-MB-435S; Homo sapiens, 144 h): 10.5 µM
IC50 (DLD1; Homo sapiens, DLD-1, 144 h): 18.5 µM
IC50 (MDA-MB-231; Homo sapiens, 144 h): 7.61 µM
IC50 (HT1080; Homo sapiens, HT-1080, 144 h): 10.4 µM
IC50 (SNU423; Homo sapiens, SNU-423, 144 h): 25.4 µM
IC50 (SNU398; Homo sapiens, SNU-398, 144 h): 1.75 µM
IC50 (NCI-H716; Homo sapiens, 144 h): 5.49 µM
IC50 (SNU761; 144 h): 12.6 µM
IC50 (HUH7; Homo sapiens, Huh-7, 144 h): 2.89 µM
IC50 (SW620; Homo sapiens, SW-620, 144 h): 3.96 µM
IC50 (SNU449; Homo sapiens, SNU-449, 144 h): 16.5 µM
IC50 (SNU182; Homo sapiens, SNU-182, 144 h): 30.9 µM
IC50 (HUH6; Homo sapiens, HuH-6, 144 h): 52.9 µM
IC50 (LNCAP-clone-FGC; Homo sapiens, 144 h): 15.6 µM
IC50 (22RV1; Homo sapiens, 144 h): 8.16 µM
Compound: Cc1ccc(F)c(NC(=O)Nc2ccc(-c3cccc4[nH]nc(NC(=O)C[C@H](N)C(=O)N[C@@H](CCC(=O)O)C(=O)O)c34)cc2)c1 [Compound 1]
IC50 (LC-2-ad; Homo sapiens, 144 h): 3.52 µM
IC50 (HuTu80; Homo sapiens, 144 h): 1.98 µM
IC50 (T.T; Homo sapiens, TT, 144 h): 9.24 µM
IC50 (JHH7; 144 h): 1.54 µM
IC50 (TE-15; Homo sapiens, 144 h): 2.94 µM
IC50 (JHH5; 144 h): 16.6 µM
IC50 (TE-6; Homo sapiens, 144 h): 10.5 µM
IC50 (Alexander cells; 144 h): 4.01 µM
IC50 (JHH4; JHH-4, 144 h): 25 µM
IC50 (JHH1; 144 h): 21.4 µM

IC50 (SNU739): > 100 µM
IC50 (NCI-H661): > 100 µM
IC50 (SNU886): 41.9 µM
IC50 (MDA-MB-435S): > 100 µM
IC50 (DLD1): > 100 µM
IC50 (MDA-MB-231): 79.5 µM
IC50 (HT1080): > 100 µM
IC50 (SNU423): > 100 µM
IC50 (SNU398): > 100 µM
IC50 (NCI-H716): 35.5 µM
IC50 (SNU761): > 100 µM
IC50 (HUH7): 40.6 µM
IC50 (SW620): 55.6 µM
IC50 (SNU449): > 100 µM
IC50 (SNU182): > 100 µM
IC50 (HUH6): > 100 µM
IC50 (LNCAP-clone-FGC): 70.5 µM
IC50 (22RV1): 95.6 µM
Compound: Cc1ccc(F)c(NC(=O)Nc2ccc(-c3cccc4[nH]nc(NC(=O)CCCCCCCCCCCNC(=O)C[C@H](N)C(=O)O)c34)cc2)c1 [Compound 12]
IC50 (LC-2-ad): 22.9 µM
IC50 (HuTu80): 44.4 µM
IC50 (T.T): > 100 µM
IC50 (JHH7): 67.2 µM
IC50 (TE-15): > 100 µM
IC50 (JHH5): > 100 µM
IC50 (TE-6): > 100 µM
IC50 (Alexander cells): 77.1 µM
IC50 (JHH4): > 100 µM
IC50 (JHH1): > 100 µM
